In one assay the test system is acne. The assay is described as follows: Study Volunteer experiences with oral taurine-magnesium treatment regimens. The class given is in vivo, human. To be noted: for Treatment Outcome: TAU 1500 mg/day, Mg 0. The source says: The following non-limiting examples show Study Volunteer experiences with various taurine-magnesium treatment regimens. Volunteers were listed in the chronological order of the start of their taking full daily doses of taurine with magnesium.
Severity of acne was the following: Volunteers 1 and 2 had sporadic mild acne, Volunteers 3 and 4 had chronic cyclic mild acne, Volunteer 5 had chronic acne that appeared to be between mild and moderate, Volunteer 6 had chronic severe acne with scarring, Volunteer 7 had chronic moderate acne, Volunteer 8 had frequent mild acne, and Volunteer 9 had acne that appeared to be between mild and moderate.
The data provided in the Examples support the surprising conclusion that relatively high doses of taurine together with magnesium provide excellent treatment and in some cases prevention of mild to severe acne. […] As described in the Examples, some Volunteers, in addition to taking their recommended supplements of taurine and magnesium, for some weeks or months took other micronutrient supplements or even a multivitamin/mineral supplement containing an extra low dose of magnesium.

In the next assay the target is T1, LXR-alpha (Homo sapiens, UniProt Q13133).
T1 construct: host or cells: liver cells in vitro
T1 sequence (Q13133 1-447): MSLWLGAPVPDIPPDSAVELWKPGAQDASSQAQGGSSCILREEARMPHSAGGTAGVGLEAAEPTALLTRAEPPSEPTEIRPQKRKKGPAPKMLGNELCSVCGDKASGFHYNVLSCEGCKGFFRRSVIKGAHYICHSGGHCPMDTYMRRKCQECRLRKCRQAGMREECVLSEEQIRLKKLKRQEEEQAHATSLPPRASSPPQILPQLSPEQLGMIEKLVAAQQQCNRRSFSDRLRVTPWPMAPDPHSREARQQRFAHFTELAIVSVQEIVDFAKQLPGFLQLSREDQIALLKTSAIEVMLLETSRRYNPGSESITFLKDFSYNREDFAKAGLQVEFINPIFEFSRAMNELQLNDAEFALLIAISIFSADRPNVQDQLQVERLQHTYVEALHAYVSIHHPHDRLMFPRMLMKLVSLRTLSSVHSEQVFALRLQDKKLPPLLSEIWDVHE
The note with it: liver cells in vitro; cited from earlier work.

Regarding `NCCS(=O)(=O)O` [taurine], the “Treatment Outcome” value in the assay on acne (Volunteer 2, mild acne with noticeable lesions, 5 days) is “No improvement”. The “Improvement of acne lesions” value with acne (Volunteer 2, taurine alone 1.5 g daily, 5 days) is “no improvement”. Besides, the “Treatment Outcome” value in the assay on acne (Volunteer 4, mild acne, break-out lesions with menstrual period, 7 days) is reported as “Slight”. The Improvement of acne entry in the assay on acne (Volunteer 4, taurine only, first week) is “slight improvement”. At LXR-alpha, the Cellular lipid levels entry was “dose-dependent marked reduction” and the “LXR-alpha ligand activity / lipogenesis” value is “ligand of LXR-alpha that inhibits lipogenesis”.
